Where a name gives a salt, the structure may show the parent alone.
Tests used:
[1] = test system: A. baumannii LMG 1025 (ATCC 17978); experiment: Assay 2: growth inhibition of A. baumannii by sub-inhibitory chloramphenicol in combination with examples (resazurin reduction); format: cell-based, Acinetobacter baumannii; settings: read-out: EC90 on A. baumannii with 10 μg/mL of chloramphenicol, 10 μg/mL chloramphenicol, 5 h or 24 h, 37° C.
Description: (§1) Escherichia coli BW25113 (CGSC 7636) and its derivatives E. coli ΔtolC (JW5503-1, ΔtolC732::kan, CGSC 11430), E. coli ΔacrA (JW0452-3, ΔacrA748::kan, CGSC 11843) and E. coli ΔacrB (JW0451-2, ΔacrB747::kan, CGSC 8609) were obtained from E. coli Genetic Stock Center (CGSC, New Haven, Connecticut) and originated from the Keio Collection (Baba T et al, Mol Sys Biol, 2006). Klebsiella pneumoniae (LMG 2095/ATCC 13883) and K. pneumoniae (ATCC43816), Pseudomonas aeruginosa (PAO1), Acinetobacter baumannii (LMG 1025, ATCC 17978), were obtained from ATCC or BCCM/LMG Bacteria Collection. All bacteria were grown and tested in cation-adjusted Mueller-Hinton broth (CAMHB; BD Difco) at 37° C. For conservation, log phase bacteria were frozen (−80° C.) in CAMHB supplemented with 15% glycerol.
Measurement of Growth Inhibition of A. baumannii Strains by Sub Inhibitory Concentrations of Chloramphenicol in Combination with Examples 1-137
(§2) For the evaluation of the dose dependent activity of examples 1-137, their ability to boost the antibacterial activity of sub-inhibitory concentrations chloramphenicol was determined. Briefly, A. baumannii LMG 1025 (ATCC 17978) were diluted from frozen or growing stocks to an OD600 of 0.001 in CAMHB. The bacterial suspension was then used as such (no-antibiotic control to evaluate EPI activity), or spiked with chloramphenicol at a final concentration of 10 μg/mL. Bacteria were then added to microplates carrying serial dilutions of the compounds examples 1-137, and incubated for (5 h or 24 h, 37° C.). Bacterial viability was evaluated using the resazurin reduction assay, and measured by fluorescence (POLARstar Omega, BMG Labtech: Ex: 530 nm Em: 590 nm). […] were defined as the compound concentration that prevented 90% of resazurin turnover compared to the non-treated bacteria.

E. coli BW25113 = experiment: Assay 1: growth inhibition of E. coli by sub-inhibitory pyridomycin in combination with examples (resazurin reduction); format: cell-based, Escherichia coli; settings: read-out: EC50 on E. coli with 8 μg/mL of pyridomycin, 8 μg/mL pyridomycin, 5 h, 37° C.
Description: as §1
Briefly, E. coli BW25113 were diluted from frozen or growing stocks to an OD600 of 0.0004-0.001 in CAMHB. […] E. coli BW25113 viability was evaluated using the resazurin reduction assay, and measured by fluorescence (POLARstar Omega, BMG Labtech: Ex: 530 nm Em: 590 nm). EC50 were defined as the compound concentration that prevented 50% of resazurin turnover compared to the non-treated bacteria.

[2] = test system: A. baumannii LMG 1025 (ATCC 17978); experiment: Assay 3: growth inhibition of A. baumannii by sub-inhibitory novobiocin in combination with examples (resazurin reduction); format: cell-based, Acinetobacter baumannii; settings: 5 μg/mL novobiocin, 5 h or 24 h, 37° C., read-out: EC90 on A. baumannii with 5 μg/mL of novobiocin
Description: as §1
Measurement of growth Inhibition of A. baumannii strains by sub Inhibitory concentrations of novobiocin In combination with examples 1-137
as §2, with “concentrations novobiocin” for “concentrations chloramphenicol”, “such (no—antibiotic” for “such (no-antibiotic”, “with novobiocin” for “with chloramphenicol”, “of 5” for “of 10”

Compound | EC90 [1] [µM] | EC50 (E. coli BW25113) [µM] | EC90 [2] [µM]
Cc1ccc(COC(=O)c2cnc(N3CCNCC3)c(Cl)c2)cc1 [Example 24, p-tolylmethyl 5-chloro-6-piperazin-1-yl-pyridine-3-carboxylate;hydrochloride] | 100 to 500 | 5 to 100 | –
O=C(OCc1ccc(Cl)cc1)c1cnc(N2CCNCC2)c(Cl)c1 [Example 25, (4-chlorophenyl)methyl 5-chloro-6-piperazin-1-yl-pyridine-3-carboxylate;hydrochloride] | 100 to 500 | 5 to 100 | –
O=C(OCCc1ccc(Cl)cc1)c1cnc(N2CCNCC2)c(Cl)c1 [Example 26, 2-(4-chlorophenyl)ethyl 5-chloro-6-piperazin-1-yl-pyridine-3-carboxylate;hydrochloride] | 100 to 500 | 100 to 500 | –
O=C(OCCCc1ccc(Cl)cc1)c1cnc(N2CCNCC2)c(Cl)c1 [Example 27, 3-(4-chlorophenyl)propyl 5-chloro-6-piperazin-1-yl-pyridine-3-carboxylate;hydrochloride] | 100 to 500 | 100 to 500 | –
O=C(OCCc1ccccc1)c1cnc(N2CCNCC2)c(Cl)c1 [Example 30, 2-phenylethyl 5-chloro-6-piperazin-1-yl-pyridine-3-carboxylate;hydrochloride] | 100 to 500 | 5 to 100 | –
COc1ccc(COC(=O)c2cnc(N3CCNCC3)c(Cl)c2)cc1 [Example 31, (4-methoxyphenyl)methyl 5-chloro-6-piperazin-1-yl-pyridine-3-carboxylate;hydrochloride] | 100 to 500 | 5 to 100 | –
O=C(NCc1ccc(Cl)cc1)c1cnc(N2CCNCC2)c(Cl)c1 [Example 33, 5-chloro-N-[(4-chlorophenyl)methyl]-6-piperazin-1-yl-pyridine-3-carboxamide;hydrochloride] | 100 to 500 | 5 to 100 | –
Clc1cc2ccccc2nc1N1CCNCC1 [Example 37, 3-chloro-2-piperazin-1-yl-quinoline; hydrochloride] | 5 to 100 | < 5 | –
Cc1cc2ccccc2nc1N1CCNCC1 [Example 38, 3-methyl-2-piperazin-1-yl-quinoline; hydrochloride] | 100 to 500 | 5 to 100 | –
N#Cc1cc2ccccc2nc1N1CCNCC1 [Example 39, 2-piperazin-1-ylquinoline-3-carbonitrile; hydrochloride] | 100 to 500 | 5 to 100 | –
Clc1ccc2nc(Cl)c(N3CCNCC3)cc2c1 [Example 41, 2,6-dichloro-3-piperazin-1-yl-quinoline;hydrochloride] | 100 to 500 | 5 to 100 | –
Cc1ccc2nc(Cl)c(N3CCNCC3)cc2c1 [Example 42, 2-chloro-6-methyl-3-piperazin-1-yl-quinoline;hydrochloride] | 100 to 500 | 5 to 100 | –
Brc1cc2ccccc2nc1N1CCNCC1 [Example 43, 3-bromo-2-piperazin-1-yl-quinoline;hydrochloride] | 100 to 500 | < 5 | –
Brc1cnc(N2CCNCC2)c2ccccc12 [Example 44, 4-bromo-1-piperazin-1-yl-isoquinoline;hydrochloride] | 5 to 100 | 100 to 500 | –
Clc1cc2ccccc2nc1N1C2CCC1CNC2 [Example 45, 3-chloro-2-(3,8-diazabicyclo[3.2.1]octan-8-yl)quinoline;hydrochloride] | 100 to 500 | 100 to 500 | –
Clc1nc2ccccc2nc1N1CCNCC1 [Example 46, 2-chloro-3-piperazin-1-yl-quinoxaline;hydrochloride] | 100 to 500 | < 5 | –
Clc1nc2ccccc2nc1N1CC2CCC(C1)N2 [Example 48, 2-chloro-3-(3,8-diazabicyclo[3.2.1]octan-3-yl)quinoxaline;hydrochloride] | 100 to 500 | 5 to 100 | –

Compound | EC90 [1] [µM] | EC50 (E. coli BW25113) [µM] | EC90 [2] [µM]
C[C@@H]1CN(c2nc3ccccc3nc2Cl)CCN1 [Example 49, hydrochloride] | 100 to 500 | 5 to 100 | –
Ic1cc2ccccc2nc1N1CCNCC1 [Example 52, 3-iodo-2-piperazin-1-yl-quinoline;hydrochloride] | 100 to 500 | < 5 | –
FC(F)(F)c1ccc2nc(N3CCNCC3)c(Br)cc2c1 [Example 53, 3-bromo-2-piperazin-1-yl-6-(trifluoromethyl)quinoline; hydrochloride] | 100 to 500 | 5 to 100 | –
Clc1ccc2nc(N3CCNCC3)c(Br)cc2c1 [Example 54, 3-bromo-6-chloro-2-piperazin-1-yl-quinoline; hydrochloride] | 100 to 500 | < 5 | –
Cc1ccc2nc(N3CCNCC3)c(Br)cc2c1 [Example 55, 3-bromo-6-methyl-2-piperazin-1-yl-quinoline;hydrochloride] | 100 to 500 | < 5 | –
Cc1cccc2cc(Cl)c(N3CCNCC3)nc12 [Example 59, 3-chloro-8-methyl-2-piperazin-1-yl-quinoline;hydrochloride] | 100 to 500 | < 5 | –
COc1nc2ccccc2nc1N1CCNCC1 [Example 82, 2-methoxy-3-piperazin-1-yl-quinoxaline; 2,2,2-trifluoroacetic acid] | 100 to 500 | 5 to 100 | –
Clc1nc2ccccc2nc1N1CC2CC(C1)N2 [Example 83, 2-chloro-3-(3,6-diazabicyclo[3.1.1]heptan-3-yl)quinoxaline; trifluoromethanesulfonic acid] | 100 to 500 | 100 to 500 | –
NCCc1ccccc1C#Cc1cnc(N2CCNCC2)c(Cl)c1 [Example 90, 2-[2-[2-(5-chloro-6-piperazin-1-yl-3-pyridyl)ethynyl]phenyl]ethanamine; 2,2,2-trifluoroacetic acid] | – | < 5 | 5 to 100
NCCc1cccc(C#Cc2cnc(N3CCNCC3)c(Cl)c2)c1 [Example 91, 2-[3-[2-(5-chloro-6-piperazin-1-yl-3-pyridyl)ethynyl]phenyl]ethanamine; 2,2,2-trifluoroacetic acid] | – | < 5 | 5 to 100
Cc1c(Cl)ccc2cc(Cl)c(N3CCNCC3)nc12 [Example 98, 3,7-dichloro-8-methyl-2-piperazin-1-yl-quinoline;hydrochloride] | 5 to 100 | < 5 | –
NCCCCNc1ccc2nc(N3CCNCC3)c(Cl)cc2c1 [Example 105, N′-(3-chloro-2-piperazin-1-yl-6-quinolyl)butane-1,4-diamine;dihydrochloride] | – | < 5 | 5 to 100
Clc1cc2cc(-c3ccccc3)ccc2nc1N1CCNCC1 [Example 106, 3-chloro-6-phenyl-2-piperazin-1-yl-quinoline;hydrochloride] | 5 to 100 | 5 to 100 | –
NCc1ccc(-c2ccc3nc(N4CCNCC4)c(Cl)cc3c2)cc1 [Example 107, [4-(3-chloro-2-piperazin-1-yl-6-quinolyl)phenyl]methanamine;dihydrochloride] | – | < 5 | 5 to 100
CN(C)Cc1cccc(-c2ccc3nc(N4CCNCC4)c(Cl)cc3c2)c1 [Example 110, 1-[3-(3-chloro-2-piperazin-1-yl-6-quinolyl)phenyl]-N,N-dimethyl-methanamine;dihydrochloride] | – | < 5 | 5 to 100
Clc1cc2cc(-c3cccc4c3CNC4)ccc2nc1N1CCNCC1 [Example 134, 3-chloro-6-isoindolin-4-yl-2-piperazin-1-yl-quinoline;dihydrochloride] | 5 to 100 | < 5 | –
